Data from patent US10800792B2, “Inhibitors of Bruton's tyrosine kinase and method of their use” (JANSSEN PHARMACEUTICA NV, priority 2015, dated 2020).

Target: unphosphorylated-BTK kinase domain (UP-BTK), GST-tagged human BTK (389-659aa) (Homo sapiens (Human), UniProt Q06187)
Assay: BTK kinase Lanthascreen binding assay
Conditions: Lanthascreen tracer competition, 60 minutes incubation, pIC50 = negative log of the IC50 in molar
Outline: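 Values are pIC50, i.e. negative log of IC50 in molar, derived from concentration–response fitting. Each compound competes with a fluorescently labelled tracer for the unphosphorylated kinase domain.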

unphosphorylated-BTK kinase domain (UP-BTK), GST-tagged human BTK (389-659aa), sequence (Q06187 389-659): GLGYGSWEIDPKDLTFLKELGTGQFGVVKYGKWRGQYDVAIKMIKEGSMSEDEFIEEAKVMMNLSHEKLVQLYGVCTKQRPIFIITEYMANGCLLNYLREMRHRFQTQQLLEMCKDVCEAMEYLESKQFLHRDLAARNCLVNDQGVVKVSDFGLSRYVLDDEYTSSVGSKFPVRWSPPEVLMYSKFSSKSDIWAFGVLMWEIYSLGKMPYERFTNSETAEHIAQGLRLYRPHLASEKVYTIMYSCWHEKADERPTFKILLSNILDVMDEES

SMILES	BTK_I_binding pIC50	IC50 (read-out: BTK_I_binding pIC50 (converted)) [nM]
O=C(N[C@@H]1CCNC1)c1sc2nccc3c2c1NC(=O)N3c1ccc(Oc2ccccc2)nc1 [Example 741, (R)-4-Oxo-5-(6-phenoxypyridin-3-yl)-N-(pyrrolidin-3-yl)-4,5-dihydro-3H-1-thia-3,5,8-triazaacenaphthylene-2-carboxamide]	5.9	–
Cc1nc(Oc2ccccc2)ccc1N1C(=O)Nc2c(C(=O)N[C@@H]3CCCN(C(=O)OC(C)(C)C)C3)sc3nccc1c23 [Example 743, (R)-tert-Butyl 3-(5-(2-methyl-6-phenoxypyridin-3-yl)-4-oxo-4,5-dihydro-3H-1-thia-3,5,8-triazaacenaphthylene-2-carboxamido)piperidine-1-carboxylate]	–	1580
O=C(N[C@@H]1CCCNC1)c1sc2nccc3c2c1NC(=O)N3c1ccc(OC2CCC2)nc1 [Example 744, (R)-5-(6-Cyclobutoxypyridin-3-yl)-4-oxo-N-(piperidin-3-yl)-4,5-dihydro-3H-1-thia-3,5,8-triazaacenaphthylene-2-carboxamide]	5.7	–
C=CC(=O)N1CC[C@@H](NC(=O)c2sc3nccc4c3c2NC(=O)N4c2cnc(Oc3ccccc3)nc2)C1 [Example 748, (R)—N-(1-Acryloylpyrrolidin-3-yl)-4-oxo-5-(2-phenoxypyrimidin-5-yl)-4,5-dihydro-3H-1-thia-3,5,8-triazaacenaphthylene-2-carboxamide]	6.8	–
C=CC(=O)N1CC[C@@H](NC(=O)c2sc3nccc4c3c2NC(=O)N4c2ncc(Oc3ccccc3)cn2)C1 [Example 749, (R)—N-(1-Acryloylpyrrolidin-3-yl)-4-oxo-5-(5-phenoxypyrimidin-2-yl)-4,5-dihydro-3H-1-thia-3,5,8-triazaacenaphthylene-2-carboxamide]	7.3	–
C=CC(=O)N1CCC[C@@H](NC(=O)c2sc3nccc4c3c2NC(=O)N4c2ccc(CC(C)C)cc2)C1 [Example 750, (R)—N-(1-Acryloylpiperidin-3-yl)-5-(4-isobutylphenyl)-4-oxo-4,5-dihydro-3H-1-thia-3,5,8-triazaacenaphthylene-2-carboxamide]	6.6	–
C=CC(=O)N1CCC[C@@H](NC(=O)c2sc3nccc4c3c2NC(=O)N4c2cc(-c3ccccc3)cnn2)C1 [Example 751, (R)—N-(1-Acryloylpiperidin-3-yl)-4-oxo-5-(5-phenylpyridazin-3-yl)-4,5-dihydro-3H-1-thia-3,5,8-triazaacenaphthylene-2-carboxamide]	6.7	–
CC(C)Cc1ccc(N2C(=O)Nc3c(C(=O)N[C@@H]4CCCNC4)sc4nccc2c34)cc1 [Example 754, (R)-5-(4-Isobutylphenyl)-4-oxo-N-(piperidin-3-yl)-4,5-dihydro-3H-1-thia-3,5,8-triazaacenaphthylene-2-carboxamide]	<6	–
O=C(N[C@@H]1CCCNC1)c1sc2nccc3c2c1NC(=O)N3c1cc(-c2ccccc2)cnn1 [Example 755, (R)-4-Oxo-5-(5-phenylpyridazin-3-yl)-N-(piperidin-3-yl)-4,5-dihydro-3H-1-thia-3,5,8-triazaacenaphthylene-2-carboxamide]	<6	–
C=CC(=O)N1CCC[C@@H](NC(=O)c2sc3nccc4c3c2NC(=O)N4c2ccc(CC(C)C)nc2C)C1 [Example 764, (R)—N-(1-Acryloylpiperidin-3-yl)-5-(6-isobutyl-2-methylpyridin-3-yl)-4-oxo-4,5-dihydro-3H-1-thia-3,5,8-triazaacenaphthylene-2-carboxamide]	6.3	–
C=CC(=O)N1CCC[C@@H](NC(=O)c2sc3nccc4c3c2NC(=O)N4c2ccc(OC3CCOCC3)nc2C)C1 [Example 770, (R)—N-(1-Acryloylpiperidin-3-yl)-5-(2-methyl-6-((tetrahydro-2H-pyran-4-yl)oxy)pyridin-3-yl)-4-oxo-4,5-dihydro-3H-1-thia-3,5,8-triazaacenaphthylene-2-carboxamide]	<6	–
C=CC(=O)N1CCC[C@@H](NC(=O)c2sc3nccc4c3c2NC(=O)N4c2ccc(Oc3cccnc3C)cc2)C1 [Example 771, (R)—N-(1-Acryloylpiperidin-3-yl)-5-(4-((2-methylpyridin-3-yl)oxy)phenyl)-4-oxo-4,5-dihydro-3H-1-thia-3,5,8-triazaacenaphthylene-2-carboxamide]	7.4	–
C=CC(=O)N1CCC[C@@H](NC(=O)c2sc3nccc4c3c2NC(=O)N4c2ccc(Oc3cccc(C)n3)cc2C)C1 [Example 772, (R)—N-(1-Acryloylpiperidin-3-yl)-5-(2-methyl-4-((6-methylpyridin-2-yl)oxy)phenyl)-4-oxo-4,5-dihydro-3H-1-thia-3,5,8-triazaacenaphthylene-2-carboxamide]	7.7	–
C=CC(=O)N1CCC[C@@H](NC(=O)c2sc3nccc4c3c2NC(=O)N4c2ccc(Oc3cccnc3C)cc2C)C1 [Example 773, (R)—N-(1-Acryloylpiperidin-3-yl)-5-(2-methyl-4-((2-methylpyridin-3-yl)oxy)phenyl)-4-oxo-4,5-dihydro-3H-1-thia-3,5,8-triazaacenaphthylene-2-carboxamide]	7.4	–
C=CC(=O)N1CCC[C@@H](NC(=O)c2sc3nccc4c3c2NC(=O)N4c2ccc(Oc3cccnc3)cc2)C1 [Example 774, (R)—N-(1-Acryloylpiperidin-3-yl)-4-oxo-5-(4-(pyridin-3-yloxy)phenyl)-4,5-dihydro-3H-1-thia-3,5,8-triazaacenaphthylene-2-carboxamide]	7.9	–
C=CC(=O)N1CCC[C@@H](NC(=O)c2sc3nccc4c3c2NC(=O)N4c2ccc(Oc3cccc(C)n3)cc2)C1 [Example 775, (R)—N-(1-Acryloylpiperidin-3-yl)-5-(4-((6-methylpyridin-2-yl)oxy)phenyl)-4-oxo-4,5-dihydro-3H-1-thia-3,5,8-triazaacenaphthylene-2-carboxamide]	7.5	–
C=CC(=O)N1CCC[C@@H](NC(=O)c2sc3nccc4c3c2NC(=O)N4c2ccc(Oc3ccccc3F)cn2)C1 [Example 777, (R)—N-(1-Acryloylpiperidin-3-yl)-5-(5-(2-fluorophenoxy)pyridin-2-yl)-4-oxo-4,5-dihydro-3H-1-thia-3,5,8-triazaacenaphthylene-2-carboxamide]	8.3	–
C=CC(=O)N1CCC[C@@H](NC(=O)c2sc3nccc4c3c2NC(=O)N4c2ccc(Oc3ccccn3)cc2C)C1 [Example 778, (R)—N-(1-Acryloylpiperidin-3-yl)-5-(2-methyl-4-(pyridin-2-yloxy)phenyl)-4-oxo-4,5-dihydro-3H-1-thia-3,5,8-triazaacenaphthylene-2-carboxamide]	8.0	–
O=C(CCCC(=O)NCCCOCCOCCOCCCNC(=O)CCCC[C@H]1SC[C@H]2NC(=O)N[C@H]21)NC/C=C/C(=O)N1CCCC(NC(=O)c2sc3nccc4c3c2NC(=O)N4c2ccc(Oc3ccccc3)cn2)C1 (stereo partly drawn) [Example 780, N^1-(15-Oxo-19-((3aR,4R,6aS)-2-oxohexahydro-1H-thieno[3,4-d]imidazol-4-yl)-4,7,10-trioxa-14-azanonadecyl)-N^5-((E)-4-oxo-4-(3-(4-oxo-5-(5-phenoxypyridin-2-yl)-4,5-dihydro-3H-1-thia-3,5,8-triazaacenaphthylene-2-carboxamido)piperidin-1-yl)but-2-en-1-yl)glutaramide]	6.3	–
C=CC(=O)N1CC[C@@H](NC(=O)c2sc3nccc4c3c2NC(=O)N4c2ccc(Oc3ccccn3)cc2C)C1 [Example 781, (R)—N-(1-Acryloylpyrrolidin-3-yl)-5-(2-methyl-4-(pyridin-2-yloxy)phenyl)-4-oxo-4,5-dihydro-3H-1-thia-3,5,8-triazaacenaphthylene-2-carboxamide]	7.4	–
C=CC(=O)N1CCC[C@@H](NC(=O)c2sc3nccc4c3c2NC(=O)N4c2ccc(Oc3ccc(C)nc3)cc2C)C1 [Example 783, (R)—N-(1-Acryloylpiperidin-3-yl)-5-(2-methyl-4-((6-methylpyridin-3-yl)oxy)phenyl)-4-oxo-4,5-dihydro-3H-1-thia-3,5,8-triazaacenaphthylene-2-carboxamide]	7.1	–
C=CC(=O)N1CCC[C@@H](NC(=O)c2sc3nccc4c3c2NC(=O)N4c2ccc(Oc3cccnn3)cc2C)C1 [Example 784, (R)—N-(1-Acryloylpiperidin-3-yl)-5-(2-methyl-4-(pyridazin-3-yloxy)phenyl)-4-oxo-4,5-dihydro-3H-1-thia-3,5,8-triazaacenaphthylene-2-carboxamide]	7.4	–
C=CC(=O)N1CCC[C@@H](NC(=O)c2sc3nccc4c3c2NC(=O)N4c2ccc(O[C@H]3CCOC3)cc2C)C1 [Example 785, N—((R)-1-Acryloylpiperidin-3-yl)-5-(2-methyl-4-(((S)-tetrahydrofuran-3-yl)oxy)phenyl)-4-oxo-4,5-dihydro-3H-1-thia-3,5,8-triazaacenaphthylene-2-carboxamide]	7.1	–
C=CC(=O)N1CCC[C@@H](NC(=O)c2sc3nccc4c3c2NC(=O)N4c2ccc(Oc3ccc(C)cn3)cc2)C1 [Example 786, (R)—N-(1-Acryloylpiperidin-3-yl)-5-(4-((5-methylpyridin-2-yl)oxy)phenyl)-4-oxo-4,5-dihydro-3H-1-thia-3,5,8-triazaacenaphthylene-2-carboxamide]	6.9	–
C=CC(=O)N1CCC[C@@H](NC(=O)c2sc3nccc4c3c2NC(=O)N4c2ccc(O[C@@H]3CCOC3)cc2C)C1 [Example 787, N—((R)-1-Acryloylpiperidin-3-yl)-5-(2-methyl-4-(((R)-tetrahydrofuran-3-yl)oxy)phenyl)-4-oxo-4,5-dihydro-3H-1-thia-3,5,8-triazaacenaphthylene-2-carboxamide]	6.6	–
